Measured values from patent US6653340B1, “Compounds useful in the complement, coagulat and kallikrein pathways and method for their preparation” (BioCryst Pharmaceuticals, Inc., priority 1997, dated 2003).

How the values were obtained:
Assay type in all cases: biochemical
[1] = molecular target: T1, factor XIIa (Homo sapiens, UniProt P00748); experiment: Factor XIIa inhibition assay (thioester substrate); conditions: read-out: XIIa (Serine Protease Inhibitory Data, IC50)
T1 sequence (P00748 373-615 limits assumed): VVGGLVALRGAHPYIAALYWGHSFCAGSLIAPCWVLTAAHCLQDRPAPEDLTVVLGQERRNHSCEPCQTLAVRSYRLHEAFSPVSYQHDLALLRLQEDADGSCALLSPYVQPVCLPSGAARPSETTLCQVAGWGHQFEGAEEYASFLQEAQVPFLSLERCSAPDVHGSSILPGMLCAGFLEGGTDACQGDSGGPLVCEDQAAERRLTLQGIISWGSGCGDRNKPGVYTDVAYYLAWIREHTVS
Method: (§1) The compounds to be tested were dissolved in a stock solution of DMSO at 10.0 or 100 mM. A portion of this stock solution was added to assay buffer in a final volume of 100 μL containing the enzyme of interest. Controls included buffer alone and enzyme solutions to which DMSO was added. Substrate was added to the reaction wells immediately or after incubation at room temperature. The reaction rates were measured spectrophotometrically by the generation of product at 405 nm for 200 sec. Background absorbance at 690 nm was measured and subtracted from the absorbance at 405 nm for each well.
(§2) The reaction rate for enzyme alone was compared to the rate of enzyme in the presence of inhibitor and the percent inhibition was calculated as shown below:
(§3) Percent Inhibition=[Rate without inhibitor−Rate with inhibitor)/(Rate without inhibitor)]×100
(§4) Compounds in the examples were tested a minimum of three times.
(§5) Thrombin was assayed at 12.5 U/ml using 0.37 mM N-Benzoyl-Phe-Val-Arg-p-nitroanilide (Svendsen, L.; Blomback B.; Blomback, M.; Olsson, P. I. Substrate for determination of trypsin, thrombin and thrombin-like enzymes. Folia Haematol. 1972, 98, 446-454.) as the substrate in 100 mM HEPES, 10 mM CaCl2, 10% DMSO, pH 7.5. Factor Xa, 0.5 U/mL, was assayed in 50 mM HEPES, 150 mM NaCl, 10 mM CaCl2, pH 8.0 using Chromozyme X, 0.17 mM, as the substrate. Plasmin (0.004 units/mL), factor XIIa ([…]) and kallikrein (0.02 units/mL were assayed using modifications of the techniques originally described by McRae, et al. (Biochemistry. 1981, 20, 7196-7206). The assays were run in 200 mM triethanolamine, pH 7.8 and 100 mM Tris-HCl, 100 mM EDTA, […] using Z-Lys-SBzl, 0.13 mM and […], 0.16 mM, as substrates, respectively.

[2] = molecular target: Factor Xa (Homo sapiens, UniProt P00742); experiment: Factor Xa inhibition assay (Chromozyme X substrate); conditions: Factor Xa 0.5 U/mL, pH 8.0; read-out: Xa (Serine Protease Inhibitory Data, IC50)
Sequence of Factor Xa (P00742 235-488 limits assumed): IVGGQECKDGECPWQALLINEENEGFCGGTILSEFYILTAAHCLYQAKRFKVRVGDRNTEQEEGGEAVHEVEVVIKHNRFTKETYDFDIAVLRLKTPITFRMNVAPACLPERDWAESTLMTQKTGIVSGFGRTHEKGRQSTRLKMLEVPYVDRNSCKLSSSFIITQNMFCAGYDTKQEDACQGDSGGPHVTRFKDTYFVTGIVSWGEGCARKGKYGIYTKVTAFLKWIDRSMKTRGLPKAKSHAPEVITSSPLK
Sequence of Factor Xa (P00742 41-179 partner limits assumed): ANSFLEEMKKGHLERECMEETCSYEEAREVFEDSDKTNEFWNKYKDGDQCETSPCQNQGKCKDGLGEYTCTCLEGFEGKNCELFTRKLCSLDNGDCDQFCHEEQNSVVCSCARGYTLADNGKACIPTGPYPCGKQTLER
Method: as §1, §2, §3, §4, §5

[3] = molecular target: T2, C1s (Homo sapiens, UniProt P09871); experiment: C1s esterolytic inhibition assay (Z-Lys-SBzl substrate); conditions: Z-Lys-SBzl 1.29 mM, C1s 3 to 13 nM; read-out: Cls (Serine Protease Inhibitory Data, IC50)
T2 sequence (P09871 16-688): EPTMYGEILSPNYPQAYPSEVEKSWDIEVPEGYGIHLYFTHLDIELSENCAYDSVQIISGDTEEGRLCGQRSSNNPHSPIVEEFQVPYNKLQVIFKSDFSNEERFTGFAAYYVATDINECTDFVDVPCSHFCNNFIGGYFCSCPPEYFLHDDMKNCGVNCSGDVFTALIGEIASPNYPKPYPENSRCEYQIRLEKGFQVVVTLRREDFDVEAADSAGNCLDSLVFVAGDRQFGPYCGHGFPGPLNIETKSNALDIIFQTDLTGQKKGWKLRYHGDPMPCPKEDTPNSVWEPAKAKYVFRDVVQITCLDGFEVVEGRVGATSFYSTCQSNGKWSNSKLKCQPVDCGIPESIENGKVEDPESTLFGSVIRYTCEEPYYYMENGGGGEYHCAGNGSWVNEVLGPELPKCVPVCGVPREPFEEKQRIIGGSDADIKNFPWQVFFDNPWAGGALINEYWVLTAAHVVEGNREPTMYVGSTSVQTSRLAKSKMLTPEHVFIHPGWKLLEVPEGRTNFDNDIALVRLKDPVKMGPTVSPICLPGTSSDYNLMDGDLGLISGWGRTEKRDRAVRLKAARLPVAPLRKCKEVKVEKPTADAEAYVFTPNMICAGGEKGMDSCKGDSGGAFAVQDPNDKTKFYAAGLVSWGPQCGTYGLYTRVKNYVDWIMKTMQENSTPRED
Method: as §1, §2, §3, §4
C1s esterolytic activity was assayed using a modification of the technique originally described by Kam using Z-Lys-SBzl, 1.29 mM as substrate and C1s at 3 to 13 nM.

[4] = molecular target: Factor D (Homo sapiens, UniProt P00746); experiment: Factor D esterolytic inhibition assay (Z-Lys-SBzl substrate); design: Factor D was purified from the urine of a patient with Fanconi syndrome by ion exchange chromatography; from tissue; host or cells: urine of a patient with Fanconi syndrome; conditions: Z-Lys-SBzl 1.29 mM, pH 7.5, 10% DMSO; read-out: Factor D (Serine Protease Inhibitory Data, IC50)
Sequence of Factor D (P00746 26-253): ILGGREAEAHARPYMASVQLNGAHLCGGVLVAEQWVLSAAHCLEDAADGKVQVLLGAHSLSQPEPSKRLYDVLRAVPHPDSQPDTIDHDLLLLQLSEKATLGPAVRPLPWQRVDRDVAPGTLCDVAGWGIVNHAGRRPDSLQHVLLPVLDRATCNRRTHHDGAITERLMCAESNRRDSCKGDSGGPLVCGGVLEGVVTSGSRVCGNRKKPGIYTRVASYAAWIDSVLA
Source text: A modification of the procedure of Volanakis (Volankis, J. E.; Barnum, S. R.; Kilpatrick, J. M. Purification and properties of human factor D. Methods in Enzymol. 1993, 223, 82-97) for purification of Factor D was utilized as described by Yamauchi (Yamauchi, Y.; Stevens, J. W.; Macon, K. J.; Volanakis, J. E. Recombinant and native zymogen forms of human complement factor D. J. Immunol. 1994, 152, 3645-3653. Briefly, Factor D was purified from the urine of a patient with Fanconi syndrome by ion exchange chromatography using BioRex 70 and two rounds of ion-exchange chromatography in a Pharmacia FPLC system using a HR5/5 Mono S column.
as §1, §2, §3, §4
An established esterolytic assay for the measurement of Factor D activity and inhibition of Factor D activity was used (Kam, C. M.; McRae, B. J.; Harper, J. W.; Niemann, M. A.; Volanakis, J. E.; Powers, J. C. Human complement proteins D, C2, and B Active site mapping with peptide thioester substrates. J Biol. Chem. 1987, 262, 3444-3451). […] Hydrolysis of this compound by Factor D liberated a free sulfhydryl group which is then reacted with 5,5′-dithiobis(2nitrobenzoic acid) producing an intense yellow color (Habeeb, A. F. S. A. Reaction of protein sulfhydryl groups with Ellman's Reagent. Methods in Enzymol. 1976, 25, 457-464.). The assays were performed in 96 well microtiter plates and rates of hydrolysis were monitored at 405 nm in a Anthos Labtec HT2 plate reader. Hydrolysis rates were reported as change in mOD/min. The assay was conducted in 100 mM HEPES, 500 mM NaCl, pH 7.5 containing 10% DMSO in a final volume of 200 μL per well.

[5] = molecular target: Thrombin (Homo sapiens, UniProt P00734); experiment: Thrombin inhibition assay (N-Benzoyl-Phe-Val-Arg-p-nitroanilide substrate); conditions: thrombin 12.5 U/ml, pH 7.5; read-out: Thrombin (Serine Protease Inhibitory Data, IC50)
Method: as §1, §2, §3, §4, §5

[6] = molecular target: kallikrein (Homo sapiens, UniProt P03952); experiment: Kallikrein inhibition assay (thioester substrate); conditions: kallikrein 0.02 units/mL; read-out: Kallikrein (Serine Protease Inhibitory Data, IC50)
Sequence of kallikrein (P03952 whole entry): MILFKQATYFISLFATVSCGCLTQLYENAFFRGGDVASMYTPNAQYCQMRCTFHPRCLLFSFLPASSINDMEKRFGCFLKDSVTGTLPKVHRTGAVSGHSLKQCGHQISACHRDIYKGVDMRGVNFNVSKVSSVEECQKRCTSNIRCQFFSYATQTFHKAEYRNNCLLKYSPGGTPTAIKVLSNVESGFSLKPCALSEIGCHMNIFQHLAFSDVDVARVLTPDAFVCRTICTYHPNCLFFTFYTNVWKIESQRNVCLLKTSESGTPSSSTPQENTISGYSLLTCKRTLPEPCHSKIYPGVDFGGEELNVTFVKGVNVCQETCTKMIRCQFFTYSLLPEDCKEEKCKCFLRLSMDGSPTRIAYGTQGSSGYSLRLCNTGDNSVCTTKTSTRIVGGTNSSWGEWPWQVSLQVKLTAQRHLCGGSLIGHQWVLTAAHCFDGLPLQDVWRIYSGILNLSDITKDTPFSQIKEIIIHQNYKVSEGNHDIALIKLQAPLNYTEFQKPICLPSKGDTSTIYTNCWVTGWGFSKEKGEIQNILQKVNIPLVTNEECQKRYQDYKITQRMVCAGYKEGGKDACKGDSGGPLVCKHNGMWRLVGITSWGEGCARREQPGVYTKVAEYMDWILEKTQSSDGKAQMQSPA
Method: as §1, §2, §3, §4, §5

[7] = molecular target: Plasmin (Homo sapiens, UniProt P00747); experiment: Plasmin inhibition assay (thioester substrate); conditions: plasmin 0.004 units/mL; read-out: Plasmin (Serine Protease Inhibitory Data, IC50)
Sequence of Plasmin (P00747 581-810 limits assumed, species assumed): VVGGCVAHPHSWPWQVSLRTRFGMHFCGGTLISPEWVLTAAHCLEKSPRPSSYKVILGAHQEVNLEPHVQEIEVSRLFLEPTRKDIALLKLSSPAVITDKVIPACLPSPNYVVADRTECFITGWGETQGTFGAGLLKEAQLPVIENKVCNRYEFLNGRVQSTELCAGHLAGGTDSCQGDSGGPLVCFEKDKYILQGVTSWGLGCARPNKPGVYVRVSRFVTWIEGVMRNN
Sequence of Plasmin (P00747 97-580 partner limits assumed, species assumed): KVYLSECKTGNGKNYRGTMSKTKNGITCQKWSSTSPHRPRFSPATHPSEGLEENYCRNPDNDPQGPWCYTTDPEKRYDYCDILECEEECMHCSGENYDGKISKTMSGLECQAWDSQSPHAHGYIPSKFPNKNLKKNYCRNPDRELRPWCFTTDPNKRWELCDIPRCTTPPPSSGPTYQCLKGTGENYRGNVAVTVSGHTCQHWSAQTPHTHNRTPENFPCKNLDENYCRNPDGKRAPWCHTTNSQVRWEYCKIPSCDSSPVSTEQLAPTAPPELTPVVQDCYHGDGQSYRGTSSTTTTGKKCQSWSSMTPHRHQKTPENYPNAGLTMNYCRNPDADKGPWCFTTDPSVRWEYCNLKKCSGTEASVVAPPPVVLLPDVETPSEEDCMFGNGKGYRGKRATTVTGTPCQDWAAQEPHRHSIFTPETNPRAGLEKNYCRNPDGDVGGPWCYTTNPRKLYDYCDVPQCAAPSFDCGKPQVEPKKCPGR
Method: as §1, §2, §3, §4, §5

Compound	IC50 [1]	IC50 [2]	IC50 [3]	IC50 [4]	IC50 [5]	IC50 [6]	IC50 [7]
N=C(N)c1cc2ccc(OC(=O)c3ccco3)cc2o1 [Example 1, 2-Amidino-6-benzofuranyl 2-furanylcarboxylate]	20 nM	60 nM	37 nM	3650 nM	57 nM	5.4 nM	42 nM
N=C(N)c1cc2ccc(OC(=O)c3cccs3)cc2o1 [Example 2]	–	996 nM	519 nM	9110 nM	520 nM	–	817 nM
N=C(N)c1cc2cc(OC(=O)c3ccco3)ccc2o1 [Example 3]	20.2 nM	4 nM	56 nM	460 nM	65 nM	5.4 nM	23 nM
N=C(N)c1cc2cc(OC(=O)c3cccs3)ccc2o1 [Example 4]	–	880 nM	50 nM	5590 nM	124 nM	–	116 nM
N=C(N)c1cc2cc(OC(=O)c3ccoc3)ccc2o1 [Example 5]	–	1580 nM	76 nM	2850 nM	104 nM	–	325 nM
N=C(N)c1cc2cc(OC(=O)c3ccsc3)ccc2o1 [Example 6]	–	500 nM	122 nM	10800 nM	361 nM	–	546 nM
N=C(N)c1cc2ccc(OC(=O)c3ccccc3)cc2s1 [Example 7]	901 nM	23 nM	11 nM	500 nM	39 nM	1.3 nM	11 nM
N=C(N)c1cc2ccc(OC(=O)c3ccco3)cc2s1 [Example 8]	5.4 nM	1 nM	1.7 nM	147 nM	44 nM	1.4 nM	1 nM
N=C(N)c1cc2ccc(OC(=O)c3cccs3)cc2s1 [Example 9]	6 nM	3.2 nM	1.6 nM	96 nM	42 nM	1.4 nM	4.1 nM
N=C(N)c1cc2ccc(OC(=O)c3ccoc3)cc2s1 [Example 10]	17.4 nM	1 nM	4.1 nM	177 nM	47 nM	1.6 nM	1 nM
N=C(N)c1cc2ccc(OC(=O)c3ccsc3)cc2s1 [Example 11]	12.7 nM	6 nM	4.3 nM	175 nM	39 nM	1.6 nM	9 nM
N=C(N)c1nc2ccc(OC(=O)c3ccccc3)cc2s1 [Example 12]	13 nM	52 nM	5.3 nM	564 nM	44 nM	3.8 nM	37 nM
N=C(N)c1nc2ccc(OC(=O)c3ccco3)cc2s1 [Example 13]	9 nM	1 nM	3 nM	421 nM	25 nM	4 nM	2 nM
N=C(N)c1nc2ccc(OC(=O)c3cccs3)cc2s1 [Example 14]	5 nM	12 nM	2 nM	250 nM	18 nM	2 nM	6 nM
N=C(N)c1nc2ccc(OC(=O)c3ccoc3)cc2s1 [Example 15]	6 nM	22 nM	2 nM	286 nM	15 nM	5 nM	15 nM
N=C(N)c1nc2ccc(OC(=O)c3ccsc3)cc2s1 [Example 16]	10 nM	31 nM	2.5 nM	205 nM	42 nM	2.6 nM	21 nM
N=C(N)c1nc2ccc(OC(=O)c3ccc(Cl)s3)cc2s1 [Example 17]	–	2 nM	2 nM	260 nM	48 nM	–	3 nM
N=C(N)C1=Cc2ccc(OC(=O)c3ccco3)cc2OC1 [Example 18, 3-amidino-7-(2H-1-benzopyran) 2-furancarboxylate methanesulfonate]	6.1 nM	3.9 nM	2.9 nM	347 nM	51 nM	3.6 nM	1.5 nM
N=C(N)C1COc2cc(OC(=O)c3ccco3)ccc2C1 (stereo not shown) [Example 19]	–	–	750 nM	50000 nM	–	661 nM	–
CC/C=C/C(=O)Oc1ccc2cc(C(=N)N)sc2c1 [Example 20]	27 nM	5 nM	6 nM	190 nM	47 nM	12 nM	6 nM
N=C(N)c1ccc2cc(OC(=O)c3ccccc3)ccc2c1 [reference, reference compound]	–	7170 nM	40 nM	4000 nM	3110 nM	–	–
